According to PMC12520410, “A FtsZ inhibitor-acinetobactin conjugate with enhanced cellular uptake in Acinetobacter baumannii acts synergistically in combination with PBP3-targeting antibiotics” (PLOS One, 2025):

How the values were obtained:
Format in all cases: binding
[1] = target: T1, AbFtsZ (A. baumannii FtsZ) (Acinetobacter baumannii, UniProt V5V8B6); experiment: fluorescence anisotropy titration of RUP2 with purified AbFtsZ
[2] = target: T1, AbFtsZ (A. baumannii FtsZ); experiment: fluorescence anisotropy titration; also inhibits GTP-dependent polymerization (light scattering)
BauA = BauA (Acinetobacter baumannii, UniProt Q76HJ9); experiment: fluorescence anisotropy titration of the RUP7_2-Fe3+ complex with purified BauA
Sequence of BauA (Q76HJ9 entry or part of it): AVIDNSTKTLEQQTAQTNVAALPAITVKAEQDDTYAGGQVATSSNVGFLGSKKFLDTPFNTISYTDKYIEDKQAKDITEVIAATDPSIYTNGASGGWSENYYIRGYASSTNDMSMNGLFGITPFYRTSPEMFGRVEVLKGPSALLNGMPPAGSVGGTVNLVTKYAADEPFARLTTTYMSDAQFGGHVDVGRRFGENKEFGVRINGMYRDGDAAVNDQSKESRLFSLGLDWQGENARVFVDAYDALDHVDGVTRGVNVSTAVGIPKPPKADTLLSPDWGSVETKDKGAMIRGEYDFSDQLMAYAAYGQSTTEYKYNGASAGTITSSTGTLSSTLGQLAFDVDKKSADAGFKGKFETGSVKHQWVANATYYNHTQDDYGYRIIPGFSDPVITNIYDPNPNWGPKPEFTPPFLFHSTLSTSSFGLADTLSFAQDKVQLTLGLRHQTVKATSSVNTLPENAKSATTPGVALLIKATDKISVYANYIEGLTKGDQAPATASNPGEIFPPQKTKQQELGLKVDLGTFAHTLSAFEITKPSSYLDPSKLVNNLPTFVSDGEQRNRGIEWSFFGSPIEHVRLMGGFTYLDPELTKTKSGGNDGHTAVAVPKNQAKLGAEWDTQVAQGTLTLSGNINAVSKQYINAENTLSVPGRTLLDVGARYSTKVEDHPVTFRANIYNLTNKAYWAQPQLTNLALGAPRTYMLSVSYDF

T1 sequence (V5V8B6 entry or part of it): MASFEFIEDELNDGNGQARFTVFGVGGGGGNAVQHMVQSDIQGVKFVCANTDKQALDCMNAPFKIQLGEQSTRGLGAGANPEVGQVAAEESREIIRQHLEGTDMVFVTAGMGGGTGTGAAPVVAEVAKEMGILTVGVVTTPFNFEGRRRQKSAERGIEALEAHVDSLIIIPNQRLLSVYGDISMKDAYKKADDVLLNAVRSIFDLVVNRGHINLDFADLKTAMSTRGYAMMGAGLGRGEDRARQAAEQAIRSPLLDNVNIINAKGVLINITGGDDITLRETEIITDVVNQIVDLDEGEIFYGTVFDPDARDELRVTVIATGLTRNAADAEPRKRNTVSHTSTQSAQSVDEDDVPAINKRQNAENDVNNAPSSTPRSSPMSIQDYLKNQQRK

Compound | Kd [1] [nM] | Kd [2] [nM] | Kd (BauA) [nM]
NC(=O)c1c(F)ccc(OC(CCO)c2nc(-c3ccc(C(F)(F)F)cc3)c(Br)o2)c1F (stereo not drawn) [RUP2] | 230 ± 90 |  | 
C[C@@H]1ON(CCc2cn(CCC(Oc3ccc(F)c(C(N)=O)c3F)c3nc(-c4ccc(C(F)(F)F)cc4)c(Br)o3)cn2)C(=O)[C@H]1NC(=O)c1cccc(O)c1O (stereo partly drawn) [RUP7] |  | 26500 ± 3700 | 1800 ± 400
